According to patent US20250281516A1, “NUTRACEUTICAL FORMULATION FOR POLYCYSTIC OVARY SYNDROME” (priority 2019, published 2025):

Assays:
PCOS symptoms = assay: Physician's further feedback in general on PCOS symptom control; set-up: species or system women; details: in vivo
infertile PCOS women = details: inositol and folic acid administered; cited from earlier work
patients (ovulation) = details: inositol alone administered; cited from earlier work

| SMILES | effectiveness compared with the combination formulation (PCOS symptoms) | restoration of ovulation (infertile PCOS women) | patients showing improvement in ovulation (patients (ovulation)) | duration of treatment after which most PCOS symptoms were controlled (PCOS symptoms) [month] |
| --- | --- | --- | --- | --- |
| O[C@H]1[C@H](O)[C@@H](O)[C@H](O)[C@@H](O)[C@H]1O [inositol] | not as effective | about 70% | about 62% | – |
| O[C@H]1[C@H](O)[C@@H](O)[C@H](O)[C@@H](O)[C@H]1O [myo-inositol] | – | – | – | > 6 |
